{
  "source": "patent US20030065040A1",
  "about": "“Pharmaceutical compositions including sampatrilat dispersed in a lipoidic vehicle” (priority 2001, published 2003)",
  "origin": "cited, not measured here",
  "key": {"[1]": {"conditions": "man; reported to be as low as"}, "[2]": {"conditions": "dogs; reported to be as low as"}},
  "note": "Where two headings read alike, the source gives them in different places.",
  "data": [
    {"compound": "CS(=O)(=O)N[C@@H](CCCCN)C(=O)NC[C@H](CC1(C(=O)N[C@@H](Cc2ccc(O)cc2)C(=O)O)CCCC1)C(=O)O", "note": "[Sampatrilat, sampatrilat]", "values": [
      {"measurement": "oral bioavailability", "setting": "[1]", "result": 2, "unit": "%"},
      {"measurement": "oral bioavailability", "setting": "[2]", "result": 5, "unit": "%"}
    ]}
  ]
}
